Assays:
[1] = tested on: carcinoma cell lines A549 and H460; assay: Cytotoxicity, sulforhodamine B (SRB) assay; format: cell-based, human; conditions: 48 hours
Experimental: Human non-small cell carcinoma cell line H460 and A549 were obtained from ATCC. Cells were cultured in growth medium consisting of DMEM (GIBCO), 10% FBS (GIBCO) and 100 units of penicillin and 100 μg/mL streptomycin (GIBCO). The cells were maintained in either 75-cm^2 T-flasks or 175-cm^2 T-flasks (BD Biosciences) in an incubator (model 3100 series, Forma Scientific, Marietta, Ohio) controlled at 37° C., 95% humidity, and 5% CO2. Cell culture medium was refreshed every other day. Every 2 to 3 days, H460 and A549 cultures were detached from the flasks using a 0.25% trypsin solution (Gibco) and subcultured. All cultures were maintained at 80-90% confluence at the time of subculture.
Cytotoxicity screening was carried out by sulforhodamine B colorimetric assay. A549 and H460 cells (2·10^3) were seeded in a 96-well plate, and after adherence, cells were incubated with 5 to 500 μM of AOL or AOX or control dimethyl sulfoxide (DMSO). Cytotoxicity was evaluated after 48 hours treatment sulforhodamine B (SRB) assay, according to Vichai (Vichai et al., 2006. Nat. Protoc. 1(3):1112-6).

Sod2-KO mice = Sod2-KO mice (lifespan, heart SDH activity, liver Oil Red O staining); format: in vivo, mouse
Text: Mice deficient in mitochondrial Mn-Superoxide Dismutase (Sod2-KO) on a CD1-background were used. This genetic alteration leads to an adverse phenotype and the death of animals at an average of 8 days old. Mitochondrial superoxide dismutase is a free radical scavenging enzyme which transforms superoxide (highly reactive) into hydrogen peroxide (less reactive), that could then cross mitochondrial membranes and be detoxified by matrix and cytosolic anti-oxidant systems. The aim of this study was to test if AOL could rescue the Sod2-KO phenotype through its activity on IQ superoxide production.
After birth, pups were genotyped (3 day-old) and the litter size was reduced to 6 pups per cage. Animals were then treated (AOL in Kolliphor®—5 mg/kg) or not (Kolliphor® only, noted KOL below). […] Two studies were conducted on two different generations from the same parents: lifespan; and succinate dehydrogenase activity in heart (SDH) and Oil Red O staining in liver. Animals were weighed and injected (intra-peritoneal) daily.
Succinate dehydrogenase activity is a marker of superoxide in the mitochondrial matrix. Thus, a lack of SOD2 is associated with a decrease of SDH activity in heart. The aim of this experiment was to test whether or not AOL could restore SDH activity in KO mice.
However, the direct link between superoxide/hydrogen peroxide production and liver lipid accumulation is not established. The aim of the study was to test the potency of AOL to prevent liver lipid accumulation in Sod2-KO mice.
Animals were injected once a day from 3 days old until their death.
In this study, animals were treated daily (5 mg/kg) from day 3 to day 5. Heart and liver were harvested at day 6.

[2] = tested on: diet-induced obese (DIO) mice; assay: Chronic treatment in diet-induced obese mice (body weight, body composition, ITT, glucose); format: in vivo, mouse; conditions: for AUC of glucose during ITT: mean±SEM, vehicle 12812.50±750.35
Experimental: The aim of the study was to determine whether the compound AOL, administered daily at the doses of 5 mg/kg and 10 mg/kg for up to five weeks by intraperitoneal (i.p.) daily administration in diet-induced obese (DIO) mice fed with a high-fat diet (HFD), modifies food intake, body weight, adiposity and glucose metabolism.
Mice were fed ad libitum with a HFD (60% of calories from fat, mostly lard) for twelve weeks before the pharmacological study begun. Animals received AOL or its vehicle by intraperitoneal (i.p.) administration and were maintained on HFD for the length of the study. Food intake and body weight were measured daily and recorded for up to three consecutive weeks.
Thirty 7-weeks-old male C57/B16J mice arrived to the laboratory on 25 Feb. 2016 and underwent a first in vivo body composition analysis (Echo MRI 900, EchoMRI Systems) after 1 week of adaptation to the experimental housing room. After this first MRI analysis, animals were fed a high-fat diet (HFD) ad libitum for a period of twelve weeks. Thereafter, they underwent a second MRI analysis and were distributed into 3 experimental groups of equivalent body weight and body composition.
Once the pharmacological treatment started (day 1), food intake (FI) and body weight (BW) were measured daily before the dark phase in animals housed in their home cage. Spillage of food was checked daily. The food consumed was calculated by subtracting the food left in the hoppers from the initial pre-weighted amount. FI and BW were measured for three consecutive weeks. Afterwards animals underwent a third MRI analysis in order to observe potential effects of the treatment onto the body composition (changes in fat and lean mass), followed by a glucose tolerance test (GTT) and an insulin tolerance test (ITT). Mice received daily i.p. administration of AOL or its vehicle for a total length of five weeks, until they were sacrificed.
A nuclear echo magnetic resonance imaging whole-body composition analyzer (Echo MRI 900; EchoMedical Systems) was used to repeatedly assess body fat and lean mass in conscious mice.
Animals were injected i.p. with 1.5 g/kg of D-Glucose (Sigma-Aldrich) for the GTT or with 0.5 U/kg of insulin (Humulin, Lilly, France) for the ITT. For the GTT and the ITT, animals were fasted overnight. The tests were conducted the following morning. Blood samples were taken from the tail vein at different time points (0, 15, 30, 60, 90 and 120 minutes after the i.p. administration of glucose or insulin) and glucose concentration was measured using glucose sticks (OneTouch Vita, Lifescan France, Issy les Moulineaux, France).
At sacrifice, blood samples were collected, blood glucose was rapidly assessed using glucose sticks and blood samples were then centrifuged at 3000 rpm for 15 minutes. The obtained plasma was stored at −80° C. for subsequent measurement of insulin, which was carried out by performing an ELISA (kit from Mercodia, Uppsala, Sweden), according to the manufacturer's instructions.

[3] = 5 mg/kg daily, day 3 to day 5, Oil Red O

Row | SMILES | concentrations without significant toxicity [1] | IC50 ([1]; Homo sapiens, 0 to 500 μM, read-out: IC50 for high dose toxicity) [µM] | SDH activity in heart of KO mice (Sod2-KO mice; 5 mg/kg daily, day 3 to day 5) | liver lipid droplets density in KO mice (Sod2-KO mice; [3]) | liver total lipid area in KO mice (Sod2-KO mice; [3]) | lifespan extension compared to untreated KO mice (Sod2-KO mice; 5 mg/kg i.p. daily from 3 days old) | body weight and body weight gain of KO mice (Sod2-KO mice; 5 mg/kg i.p. daily, day 8 to 12) | effect on body weight ([2]; 5 and 10 mg/kg i.p. daily, HFD, three weeks) | AUC of glucose during ITT ([2]; AOL 5 mg/kg) | action of insulin on circulating glucose levels during an ITT ([2]; AOL 10 mg/kg) | AUC of glucose during ITT ([2]; AOL 10 mg/kg) | blood glucose levels ([2]; after five weeks of treatment, 2-hour fasted mice) | lean mass ([2]; after three weeks of chronic administration) | fat mass ([2]; after three weeks of chronic administration, p=0.13) | body weight and food intake ([2]; chronic daily administration, data not shown)
1 | Oc1ccc(-c2cc(=S)ss2)cc1 [AOX, 5-(4-hydroxyphenyl)-3H-1,2-dithiole-3-thione] | lower than 100 μM | 134.8 ± 0.3 | – | – | – | – | – | – | – | – | – | – | – | – | –
2 | COc1ccc(-c2cc(=S)ss2)cc1 [AOL, 5-(4-methoxyphenyl)-3H-1,2-dithiole-3-thione] | – | – | only a very slight increase in SDH activity | lipid droplets density decreased | able to restore the total lipid area | up to 2 days | tends to alleviate this effect | did not have a significant effect | 15006.56±1139.69 | significantly blunted the action of insulin | 18168.33±1562.90 | tended to decrease blood glucose levels | did not have any effect on lean mass | tended to reduce fat mass | tended to decrease body weight and food intake
